Here are results for 18 compounds from patent publication US20240287093A1, “HIGH ACTIVITY STING PROTEIN AGONIST” (ADLAI NORTYE BIOPHARMA CO., LTD., priority 2018, published 2024).

SMILES strings stand for the structures.

Format in all cases: cell-based
In assay [1] the target is T1, STING variants (WT) (Homo sapiens, UniProt Q86WV6).
T1 construct: host or cells: HEK-Blue ISG KO-STING cells (Invivogen, hkb-kostg)
In words: SEAP reporter assay in HEK-Blue ISG KO-STING cells transfected with STING WT variant (Method 1). The conditions noted are these: 24 h. The text has this: (§1) Example I: STING Variants (WT & HAQ) Activation by Compounds in HEK-Blue™ ISG KO-STING Cells (Method 1)
(§2) Activation of STING can be determined using a SEAP reporter assay in HEK-Blue™ ISG KO-STING cells (Invivogen, cat #hkb-kostg) transfected with plasmids expressing STING variants (WT & HAQ) (referred to WO2017/175147A1). STING variants (WT & HAQ) vector were constructed based on STING-232H vector (Origene, RC208418). GFP vector (VT2069) was bought from Youbio. The detailed protocol as follows: HEK-Blue™ ISG KO-STING cells were harvest and seeding into 96 well plate, the final cell number was 0.8×10^5 cells/well. Transfections were prepared using Lipofectamine 2000 (Invitrogen, Cat #11668-027) following the manufacturer's instructions (Lipo2000:DNA=1:10), 20 ul of transfection suspension containing 1 ng STING vector was added to cell culture plate and incubated at 37° C., 5% CO2 for 24 h. After 24 hours incubation, compounds were added at proper concentration, and the final DMSO concentration was 0.5%. After 24 h incubation, the supernatant was collected to detect SEAP signal using Great EscAPe SEAP chemiluminescence KIT (Clontech, cat #631738) and cells were collected to detect cell viability using CellTiter-Glo Luminescent Cell Viability Assay (Promega, cat #G7573) following the manufacturer's instructions. The data were described by the ratio of the stimulating signal of compounds to 0.5% DMSO.

Assay [2] addresses T2, STING variants (HAQ) (Homo sapiens, UniProt Q86WV6, G230A/R293Q/R71H).
T2 construct: host or cells: HEK-Blue ISG KO-STING cells (Invivogen, hkb-kostg)
In words: SEAP reporter assay in HEK-Blue ISG KO-STING cells transfected with STING HAQ variant (Method 1). To be noted: 24 h.
Text: as §1, §2

For assay [3], the target named is T3, STING (Homo sapiens, UniProt Q86WV6, G230A/H232R/R293Q/R71H).
T3 construct: THP1 was purchased from National Collection of Authenticated Cell Cultures (Cat #TCHu 57); host or cells: THP1
T3 sequence (Q86WV6 whole entry R71H/G230A/H232R/R293Q): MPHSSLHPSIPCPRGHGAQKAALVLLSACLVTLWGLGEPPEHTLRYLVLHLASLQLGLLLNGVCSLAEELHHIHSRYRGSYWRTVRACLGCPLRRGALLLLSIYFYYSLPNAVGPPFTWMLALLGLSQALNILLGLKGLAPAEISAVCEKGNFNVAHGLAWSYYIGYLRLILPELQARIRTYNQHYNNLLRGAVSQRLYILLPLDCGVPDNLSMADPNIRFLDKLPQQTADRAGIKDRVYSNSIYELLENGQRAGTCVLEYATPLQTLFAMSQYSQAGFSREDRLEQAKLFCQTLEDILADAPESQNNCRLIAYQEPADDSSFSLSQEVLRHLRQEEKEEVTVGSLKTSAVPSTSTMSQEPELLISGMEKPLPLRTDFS
Description: IFNβ release from THP1 by STING activation (hIFNβ ELISA). To be noted: THP1 cells, 24 h, IFN-β in supernatant; inactive = IFNβ not detected at the maximum concentration of compounds. As to the method:
Example III: Compound Stimulate THP1 to Release IFNβ by STING Activation
In this assay, activation of STING by compounds was evaluated by detecting their ability to stimulate the secretion of IFN-β (interferon-beta) from THP1. THP1 was purchased from National Collection of Authenticated Cell Cultures (Cat #TCHu 57). The top dose of compounds was setted according to their solubility. First, Compounds were 3 times diluted with medium, 8-dose points in total. The final DMSO concentration was 0.2%. THP1 during the logarithmic phase was resuspended to 2×10^6 cells/ml in assay medium. The THP1-cell suspension was dispensed into a 96-well U bottom plate containing 50 ul of compound diluted in medium. After 24 h incubation at 37° C., 5% CO2, the supernatant was collected. The concentration of IFN-β in the supernatant was measured using a human IFNβ ELISA KIT (R&D, DY814-05). The data was fitted with GraphPad Prism or XLfit to calculate EC50 values.
(In an ELISA, binding on a coated surface is turned into a signal by an enzyme label.)

Where [4] appears, read: compound concentration 15.65 μM.
Where [5] appears, read: compound concentration 169.6 μM.

T2 sequence (Q86WV6 whole entry R71H/G230A/R293Q): as the sequence (Q86WV6 whole entry R71H/G230A/H232R/R293Q) above, with R232H counted along it

As for `CCn1nc(C)cc1C(=O)Nc1nc2cc(C(N)=O)cc3c2n1[C@@H](COCc1ccccc1)CO3` [Example 30, (S)-3-((Benzyloxy)methyl)-2-(1-ethyl-3-methyl-1H-pyrazole-5-carboxamido)-3,4-dihydro-5-oxa-1,2a-diazaacenaphthylene-7-carboxamide], the “Fold change related to DMSO control, WT” value in assay [1] (compound concentration 25 μM) turned out to be 1.63 fold. Besides, the “Fold change related to DMSO control, HAQ” value in assay [2] (compound concentration 25 μM) worked out at 35.09 fold.
In the case of `CCn1nc(C)cc1C(=O)Nc1nc2cc(C(N)=O)cc3c2n1[C@@H](CCNC(=O)/C=C/c1ccccc1OC)CO3` [Example 39, (S,E)-2-(1-ethyl-3-methyl-1H-pyrazole-5-carboxamido)-3-(2-(3-(2-methoxyphenyl)acrylamido)ethyl)-3,4-dihydro-5-oxa-1,2a-diazaacenaphthylene-7-carboxamide], in assay [1] (compound concentration 25 μM), the “Fold change related to DMSO control, WT” value was found to be 2.78 fold. For the same compound, the “Fold change related to DMSO control, HAQ” value in assay [2] (compound concentration 25 μM) turned out to be 25.85 fold.
As to `CCn1nc(C)cc1C(=O)Nc1nc2cc(C(N)=O)cc3c2n1[C@@H](CCNC(=O)/C=C/c1ccc(C#N)cc1)CO3` [Example 37, (S,E)-3-(2-(3-(4-cyanophenyl)acrylamido)ethyl)-2-(1-ethyl-3-methyl-1H-pyrazole-5-carboxamido)-3,4-dihydro-5-oxa-1,2a-diazaacenaphthylene-7-carboxamide], the “Fold change related to DMSO control, WT” value in assay [1] (compound concentration 3.11 μM) came out at 1.07 fold. Moreover, the “Fold change related to DMSO control, HAQ” value in assay [2] (compound concentration 3.11 μM) stood at 1.85 fold.
On to `CCn1nc(C)cc1C(=O)Nc1nc2cc(C(N)=O)cc3c2n1C(C)(C)CO3` [Example 21, 2-(1-Ethyl-3-methyl-1H-pyrazole-5-carboxamido)-3,3-dimethyl-3,4-dihydro-5-oxa-1,2a-diazaacenaphthylene-7-carboxamide], for which the “Fold change related to DMSO control, WT” value in assay [1] (compound concentration 25 μM) is 2.18 fold. Besides, in assay [2] (compound concentration 25 μM), the “Fold change related to DMSO control, HAQ” value was 8.87 fold.
The like results for `CCn1nc(C)cc1C(=O)Nc1nc2cc(C(N)=O)cc3c2n1[C@@H](CCNC(=O)/C=C/c1cccc(F)c1)CO3` [Example 38, (S,E)-2-(1-ethyl-3-methyl-1H-pyrazole-5-carboxamido)-3-(2-(3-(3-fluorophenyl)acrylamido)ethyl)-3,4-dihydro-5-oxa-1,2a-diazaacenaphthylene-7-carboxamide] were, in that order, 2.96 fold and 22.76 fold.
Regarding `CCn1nc(C)cc1C(=O)Nc1nc2cc(C(N)=O)cc3c2n1[C@@H](CCNC(=O)OCc1ccccc1)CO3` [Example 14, Benzyl (S)-(2-(7-carbamoyl-2-(1-ethyl-3-methyl-1H-pyrazole-5-carboxamido)-3,4-dihydro-5-oxa-1,2a-diazaacenaphthylen-3-yl)ethyl)carbamate], in assay [1] (compound concentration 25 μM), the “Fold change related to DMSO control, WT” value was 1.59 fold. For the same compound, the “Fold change related to DMSO control, HAQ” value in assay [2] (compound concentration 25 μM) is 27.44 fold.
Usually EC50 stands for the midpoint of the concentration-response curve. The low end stands for greater potency, the high end for weaker potency. In assay [3], `CCn1nc(C)cc1C(=O)Nc1nc2cc(C(N)=O)cc3c2n1CC1(CCC1)CO3` [Example 77, 1-(1-ethyl-3-methyl-1H-pyrazole-5-carboxamido)-7H,9H-6-oxa-2,9a-diazaspiro[benzo[cd]azulene-8,1′-cyclobutan]-1,2a,2a1(5a),4-tetraene-4-carboxamide] gave a half-maximal effective concentration (EC50) of 20.8 µM.
With `CCn1nc(C)cc1C(=O)Nc1nc2cc(C(N)=O)cc3c2n1CC(C)(C)CN3CCCOC` [Example 74, 1-(1-Ethyl-3-methyl-1H-pyrazole-5-carboxamido)-6-(3-methoxypropyl)-8,8-dimethyl-6,7,8,9-tetrahydro-2,6,9a-triazabenzo[cd]azulene-4-carboxamide], the response in assay [3] was half-maximal at 11.8 µM (EC50).
Turning to `CCn1nc(C)cc1C(=O)Nc1nc2cc(C(N)=O)cc3c2n1C(C)(CO)CO3` (stereo not drawn) [Example 3, 2-(1-Ethyl-3-methyl-1H-pyrazole-5-carboxamido)-3-(hydroxymethyl)-3-methyl-3,4-dihydro-5-oxa-1,2a-diazaacenaphthylene-7-carboxamide], in assay [1] (compound concentration 125 μM), the “Fold change related to DMSO control, WT” value amounted to 1.79 fold. In assay [2] (compound concentration 125 μM), the “Fold change related to DMSO control, HAQ” value was determined as 3.54 fold.
For the compound `CCn1nc(C)cc1C(=O)Nc1nc2cc(C(N)=O)cc3c2n1[C@@H](CCCCNC(=O)OCc1ccccc1)CO3` [Example 17, Benzyl (S)-(4-(7-carbamoyl-2-(1-ethyl-3-methyl-1H-pyrazole-5-carboxamido)-3,4-dihydro-5-oxa-1,2a-diazaacenaphthylen-3-yl)butyl)carbamate], in assay [1] (compound concentration 25 μM), the “Fold change related to DMSO control, WT” value amounted to 1.76 fold. For the same compound, in assay [2] (compound concentration 25 μM), the “Fold change related to DMSO control, HAQ” value is recorded as 37.64 fold.
Turning to `CCn1nc(C)c(F)c1C(=O)Nc1nc2cc(C(N)=O)cc3c2n1CC1(CCC1)CO3` [Example 78, 1-(1-Ethyl-4-fluoro-3-methyl-1H-pyrazole-5-carboxamido)-7H,9H-6-oxa-2,9a-diazaspiro[benzo[cd]azulene-8,1′-cyclobutan]-1,2a,2a1(5a),4-tetraene-4-carboxamide], it took 19 µM to reach a half-maximal effect in assay [3] (EC50).
On the same count and under the same terms, next, `CCn1nc(C)cc1C(=O)Nc1nc2cc(C(N)=O)cc3c2n1CC(C)(C)CN3CCO` [Example 76, 1-(1-ethyl-3-methyl-1H-pyrazole-5-carboxamido)-6-(2-hydroxyethyl)-8,8-dimethyl-6,7,8,9-tetrahydro-2,6,9a-triazabenzo[cd]azulene-4-carboxamide]: 9.9 µM.
In the case of `CCOC(=O)/C=C/C1(C)COc2cc(C(N)=O)cc3nc(NC(=O)c4cc(C)nn4CC)n1c23` (stereo not drawn) [Example 5, Ethyl (E)-3-(7-carbamoyl-2-(1-ethyl-3-methyl-1H-pyrazole-5-carboxamido)-3-methyl-3,4-dihydro-5-oxa-1,2a-diazaacenaphthylen-3-yl)acrylate], the “Fold change related to DMSO control, WT” value in assay [1] (setting [4]) was found to be 1.52 fold. Besides, the “Fold change related to DMSO control, HAQ” value in assay [2] (setting [4]) is 1.20 fold.
On to `CCn1nc(C)cc1C(=O)Nc1nc2cc(C(N)=O)cc3c2n1CC(C)(C)CN3CCOC` [Example 73, 1-(1-ethyl-3-methyl-1H-pyrazole-5-carboxamido)-6-(2-methoxyethyl)-8,8-dimethyl-6,7,8,9-tetrahydro-2,6,9a-triazabenzo[cd]azulene-4-carboxamide], for which a half-maximal response in assay [3] (EC50) required 6.8 µM.
Take `CCn1nc(C)cc1C(=O)Nc1nc2cc(C(N)=O)cc3c2n1C(C)(CN(C)CCc1ccccc1)CO3` (stereo not drawn) [Example 29, 2-(1-Ethyl-3-methyl-1H-pyrazole-5-carboxamido)-3-methyl-3-((methyl(phenethyl)amino)methyl)-3,4-dihydro-5-oxa-1,2a-diazaacenaphthylene-7-carboxamide]: the “Fold change related to DMSO control, WT” value in assay [1] (compound concentration 25 μM) was 1.06 fold. Also, the “Fold change related to DMSO control, HAQ” value in assay [2] (compound concentration 25 μM) is recorded as 1.14 fold.
As for `CCn1nc(C)cc1C(=O)Nc1nc2cc(C(N)=O)cc3c2n1CC(C)(C)CN3CCOCc1ccccc1` [Example 75, 6-(2-(benzyloxy)ethyl)-1-(1-ethyl-3-methyl-1H-pyrazole-5-carboxamido)-8,8-dimethyl-6,7,8,9-tetrahydro-2,6,9a-triazabenzo[cd]azulene-4-carboxamide], in assay [3], the response was half-maximal at 7.7 µM (EC50).
In the case of `CCn1nc(C)cc1C(=O)Nc1nc2cc(C(N)=O)cc3c2n1[C@@H](CCNC(=O)OC(C)(C)C)CO3` [Example 6, tert-Butyl (S)-(2-(7-carbamoyl-2-(1-ethyl-3-methyl-1H-pyrazole-5-carboxamido)-3,4-dihydro-5-oxa-1,2a-diazaacenaphthylen-3-yl)ethyl)carbamate], in assay [1] (setting [5]), the “Fold change related to DMSO control, WT” value came out at 0.76 fold. Moreover, the “Fold change related to DMSO control, HAQ” value in assay [2] (setting [5]) is 4.41 fold.
Regarding `CCn1nc(C)cc1C(=O)Nc1nc2cc(C(N)=O)cc3c2n1[C@@H](CCNC(=O)OCCc1ccccc1)CO3` [Example 42, Phenethyl (S)-(2-(7-carbamoyl-2-(1-ethyl-3-methyl-1H-pyrazole-5-carboxamido)-3,4-dihydro-5-oxa-1,2a-diazaacenaphthylen-3-yl)ethyl)carbamate], the “Fold change related to DMSO control, WT” value in assay [1] (compound concentration 21.4 μM) is recorded as 1.10 fold. In assay [2] (compound concentration 21.4 μM), the “Fold change related to DMSO control, HAQ” value was determined as 10.52 fold.
